Data on one molecule can be found in publication PMC12933331, “A Cryptic Pocket Allosterically Modulates Oligosaccharide Binding to DC-SIGN” (JACS Au, 2026).

The Kd is the free concentration of one partner at which half of the binding sites on the other are occupied at equilibrium, for simple one-to-one binding. A higher Kd goes with a looser complex.

Common to all, as to type: binding
For assay [1], the target named is T1, DC-SIGN CRD M270F (Homo sapiens, UniProt Q9NNX6, M270F).
T1 construct: acids 253-404 of DC-SIGN; His-tag (N); made in house
T1 sequence (Q9NNX6 253-404 M270F): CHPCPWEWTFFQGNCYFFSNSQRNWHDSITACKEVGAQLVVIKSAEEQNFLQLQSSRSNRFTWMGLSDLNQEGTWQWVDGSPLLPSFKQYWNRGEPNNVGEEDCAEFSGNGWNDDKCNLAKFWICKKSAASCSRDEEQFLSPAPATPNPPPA
In words: 1H-15N HSQC NMR titration (CSP fitting). The method, then:
(§1) 1H-15N HSQC NMR. 1H-15N HSQC NMR spectra were collected with 256 increments in the nitrogen and 24 scans per increment and 2048 points in the direct dimension. The relaxation delay d1 was set to 1.0 s. The W5 WATERGATE pulse sequence was used for solvent suppression.3, 4 Experiments were performed at a CRD concentration of 200 μM in 20 mM MES, 40 mM NaCl, 10 mM CaCl2 (pH 6.0) supplemented with 10% D 2O and, if applicable, varying concentrations of ligands. Samples of apo DC -SIGN CRD were prepared as described for 1H-13C HSQC NMR experiments. A previously published resonance assignment of DC-SIGN CRD was transferred to the nearest neighbor in a reference spectrum recorded without ligand.5 Unassigned, overlapping or disappearing peaks were not assigned.
(§2) CSPs induced by mutations or ligands were calculated as previously described according to […]
(§3) The empirical weighing factor a was set to 0.15 for all calculations.
(§4) Dissociation constants (K Ds) were determined in titration experiments at five ligand concentratio ns […]
(§5) in the fast exchange regime were used for the fitting procedure via equation 4 in a global two - […]
(§6) with CSP max corresponding to the CSP values upon saturation and the bound protein fraction p b […]
(§7) CHESPA was performed as previously described .7 The chemical shift vector between apo and holo wildtype DC -SIGN CRD was used as reference perturbation to calculate the vector product to […]

Assay [2] deals with T2, DC-SIGN CRD F359L (Homo sapiens, UniProt Q9NNX6, F359L).
T2 construct: acids 253-404 of DC-SIGN; His-tag (N); made in house
T2 sequence (Q9NNX6 253-404 F359L): T1 sequence (Q9NNX6 253-404 M270F) with F18M, F107L
The experiment in a line: 1H-15N HSQC NMR titration (CSP fitting). As to the method: as §1, §2, §3, §4, §5, §6, §7

The target in assay [3] is T3, DC-SIGN CRD T314A (Homo sapiens, UniProt Q9NNX6, T314A).
T3 construct: acids 253-404 of DC-SIGN; His-tag (N); made in house
T3 sequence (Q9NNX6 253-404 T314A): T1 sequence (Q9NNX6 253-404 M270F) with F18M, T62A
The experiment in a line: 1H-15N HSQC NMR titration (CSP fitting). As to the method:
as §1, §2, §3, §4, §5, §6, §7

Assay [4] has as its target T4, DC-SIGN CRD Q323A (Homo sapiens, UniProt Q9NNX6, Q323A).
T4 construct: acids 253-404 of DC-SIGN; His-tag (N); made in house
T4 sequence (Q9NNX6 253-404 Q323A limits assumed): T1 sequence (Q9NNX6 253-404 M270F) with F18M, Q71A
The experiment in a line: 1H-15N HSQC NMR titration (CSP fitting). The method, then: as §1, §2, §3, §4, §5, §6, §7

Assay [5] concerns the target T5, DC-SIGN CRD wildtype (Homo sapiens, UniProt Q9NNX6).
T5 construct: acids 253-404 of DC-SIGN; His-tag (N); made in house
T5 sequence (Q9NNX6 253-404): T1 sequence (Q9NNX6 253-404 M270F) with F18M
The experiment in a line: 1H-15N HSQC NMR titration (CSP fitting). The method, then:
as §1, §2, §3, §4, §5, §6, §7

The target of assay [6] is T6, DC-SIGN CRD W364F (Homo sapiens, UniProt Q9NNX6, W364F).
T6 construct: acids 253-404 of DC-SIGN; His-tag (N); made in house
T6 sequence (Q9NNX6 253-404 W364F): T1 sequence (Q9NNX6 253-404 M270F) with F18M, W112F
The experiment in a line: 1H-15N HSQC NMR titration (CSP fitting). As to the method:
as §1, §2, §3, §4, §5, §6, §7

The target in assay [7] is T7, DC-SIGN CRD E358A (Homo sapiens, UniProt Q9NNX6, E358A).
T7 construct: acids 253-404 of DC-SIGN; His-tag (N); made in house
T7 sequence (Q9NNX6 253-404 E358A): T1 sequence (Q9NNX6 253-404 M270F) with F18M, E106A
In words: 1H-15N HSQC NMR titration (CSP fitting). The method, then:
as §1, §2, §3, §4, §5, §6, §7

The target of assay [8] is T8, DC-SIGN CRD F313A (Homo sapiens, UniProt Q9NNX6, F313A).
T8 construct: acids 253-404 of DC-SIGN; His-tag (N); made in house
T8 sequence (Q9NNX6 253-404 F313A): T1 sequence (Q9NNX6 253-404 M270F) with F18M, F61A
The experiment in a line: 1H-15N HSQC NMR titration (CSP fitting). The method, then:
as §1, §2, §3, §4, §5, §6, §7

The target of assay [9] is T9, DC-SIGN CRD I376V (Homo sapiens, UniProt Q9NNX6, I376V).
T9 construct: acids 253-404 of DC-SIGN; His-tag (N); made in house
T9 sequence (Q9NNX6 253-404 I376V limits assumed): T1 sequence (Q9NNX6 253-404 M270F) with F18M, I124V
The experiment in a line: 1H-15N HSQC NMR titration (CSP fitting). The method, then:
as §1, §2, §3, §4, §5, §6, §7

In assay [10] the target is T10, DC-SIGN ECD T314A (Homo sapiens, UniProt Q9NNX6, T314A).
T10 construct: acids 64 -404 of DC -SIGN; made in house
T10 sequence (Q9NNX6 64-404 T314A): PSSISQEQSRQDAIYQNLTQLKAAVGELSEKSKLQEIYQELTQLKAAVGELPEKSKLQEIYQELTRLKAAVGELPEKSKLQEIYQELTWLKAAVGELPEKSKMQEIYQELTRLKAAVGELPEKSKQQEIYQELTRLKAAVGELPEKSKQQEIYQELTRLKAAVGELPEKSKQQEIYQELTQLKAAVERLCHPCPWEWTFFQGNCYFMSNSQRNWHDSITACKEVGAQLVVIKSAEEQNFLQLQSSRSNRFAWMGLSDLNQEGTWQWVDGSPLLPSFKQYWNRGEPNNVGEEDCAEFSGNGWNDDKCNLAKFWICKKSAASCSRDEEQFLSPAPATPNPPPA
The experiment in a line: Plate-based horseradish peroxidase assay. The settings on record: 1 µg mL-1 HRP, 25 mM CaCl2.
Experimental: Measurements were done on a Enspire Multimode Plate Reader (PerkinElmer). GraphPad Prism was used for all data processing and analysis.
CaCl2 titration. 100 µg mL-1 DC-SIGN ECD were immobilized in immobilization buffer (25 mM HEPES, 150 mM NaCl, 25 mM CaCl 2, pH 7.4) overnight at 4°C on transparent Nunc Maxisorp 96-well plates (Thermo Fisher). Protein solution was removed, and plates were washed three times with immobilization buffer and then blocked for 2 hours at 4°C with blocking buffer (25 mM HEPES, 150 mM NaCl, 25 mM CaCl 2, 2% BSA, 0.01% Tween -20). Plates were washed twice with 25 mM HEPES, 150 mM NaCl, 5 mM EDTA, pH 7.4 and twice with 25 mM HEPES, 150 mM NaCl, pH 7.4 to remove residual Ca 2+. To titrate Ca2+, CaCl2 in 25 mM HEPES, 150 mM NaCl, pH 7.4 was serially diluted on the plate at a constant HRP concentration of 1 µg mL-1 and then incubated at RT for 2 hours. Following incubation, plates were washed three times with 25 mM HEPES, 150 mM NaCl, pH 7.4 and bound HRP was detected using a TMB substrate kit (Thermo Fisher) and 0.18 M H2SO4 according to manufacturer’s instructions.
HRP titration. Immobilization and blocking were done as described above. After blocking, plates were washed three times with immobilization buffer. HRP in immobilization buffer was serially diluted on the plate at a constant concentration CaCl2 concentration of 25 mM and then incubated
at RT for 2 hours. Following incubation, plates were washed three times with immobilization buffer and HRP was detected as described above.
Immobilization and blocking were done as described above. After blocking, plates were washed three times with immobilization buffer. containing 1 µg mL-1 HRP was serially diluted on the plate and then incubated at RT for 2 hours.
Following incubation, plates were washed three times with immobilization buffer and HRP was detected as described above.
All conditions were measured in technical triplicates, averaged and normalized to the control well
IC50 and EC50 values and hill
slopes (nH) were obtained in a four-parameter fit according to equation (1).
Y = bottom + top − bottom (1)
With bottom and top representing the minimal and maximal response plateaus, respectively, Y as the observed response and X the logarithmic concentration of the ligand .

SMILES strings stand for the structures. Positions count from the first letter of the chain named.

Take `OC[C@H]1OC(O)[C@@H](O)[C@@H](O)[C@@H]1O` (stereo partly shown) [mannose]: the Kd turned out to be 2.9 ± 0.4 mM in assay [1]; 8.2 ± 0.8 mM in assay [2]; 3.9 ± 0.1 mM in [3]; 3.5 ± 0.2 mM in assay [4]; 3.3 ± 0.3 mM in assay [5]; 5 ± 0.9 mM in assay [6]. Moreover, the Kd in assay [7] came out at 51.1 ± 4.9 mM; in [8] it was 6 ± 0.5 mM; in [9], 3.4 ± 0.2 mM. For the same molecule, the “hill slope, inhibition of HRP binding” value in [10] is on record as -2.1.
